Assay results from US11484529B2, “Desmethylanethole trithione derivatives for the treatment of diseases linked to mitochondrial reactive oxygen species (ROS) production” (OP2 Drugs, priority 2017, dated 2022).

How the values were obtained:
[1] = tested on: H460 carcinoma cells; assay: Transwell cell migration (metastatic activity); type: cell-based, human; conditions: 100 μM NAC, 16 hours
Method: Cell migration assays were performed in Transwells (Corning Inc., 8.0-μm pore size). For migration assay, 2·10^4 cells in serum-free medium were added to the upper wells. Media containing 10% FBS were added to the lower wells. Cells that migrated through the filter after 16 hours were stained with 0.2% crystal violet and counted using the software Image J.
The Transwell test of cell migration has been utilized for this assay and the migration of H460 carcinoma cells has been measured in the presence of two different concentrations of AOX (5 and 10 μM) and compared to the effect of 100 μM N-acetyl cystein (NAC) as a positive control of cytosolic ROS production (FIG. 25).

[2] = tested on: NAD(P)H oxidase; assay: Non-mitochondrial ROS/H2O2 production by NAD(P)H oxidase (Amplex Red); type: biochemical; conditions: 10 to 100 μM; no mitochondria
Method: Rates of ROS/H2O2 production from heart mitochondria were assessed through the oxidation of the colorless, non-fluorescent indicator Amplex Red in the presence of exogenous horseradish peroxidase (HRP, EC 1.11.1.7, Sigma). H2O2 reacts with Amplex Red in a 1:1 stoichiometry, yielding the fluorescent compound resorufin (excitation: 560 nm; emission: 585 nm) which is stable once formed. Fluorescence was measured continuously with a spectro-fluorometer equipped with temperature control and stirring (SAFAS Xenius, Monaco). Isolated mitochondria (0.1 mg/mL) were incubated in the same experimental buffer than previously, supplemented with 15 μM Amplex Red and 10 μg/mL HRP. Glutamate (5 mM)/malate (2.5 mM) together with succinate (5 mM) were used as complex I and complex II substrates, respectively. Experiments were conducted under non-phosphorylating conditions in the presence of 15 μM atractyloside, i.e., under state IV conditions where […]. Afterwards, rotenone (1.5 μM), antimycin A (2 μM), and myxothiazol (0.2 μM) were sequentially added to inhibit the redox centers within the electron transfer chain (FIG. 2), namely sites IQ, IF (with rotenone), IIIQi (with antimycin A) and IIIQO (with myxothiazol). Assay was finally calibrated with known amounts of H2O2 (steps of 300 nM), in the presence of all relevant compounds, including AOL. The control test of the absence of effect of AOL on the Amplex Red assay itself and NAD(P)H oxidase ROS/H2O2 production was carried out in the absence of cardiac mitochondria and the presence of NAD(P)H oxidase (EC 1.6.3.3, 5 mU/mL, Sigma) and NADH (100 μM) solutions.
The specificity of AOL was further tested in vitro using the peroxidase-Amplex Red system utilized for the measurement of ROS/H2O2 by mitochondria, which in fact measures the appearance of H2O2 by the oxidation of Amplex Red to the fluorescent resorufin (see FIG. 4). In the absence of mitochondria and by adding instead a H2O2-producing system to the measuring system, it was possible to test the effect of AOL on this system. This has been carried out by using commercial NAD(P)H oxidase which produces H2O2 in the presence of added NAD(P)H and measuring the reduction of Amplex Red to resorufin (FIG. 4).
Isolated mitochondria (0.1 mg/mL) were incubated in the same experimental buffer than previously, supplemented with 15 μM Amplex Red and 10 μg/mL HRP. Glutamate (5 mM)/malate (2.5 mM) together with succinate (5 mM) were used as complex I and complex II substrates, respectively. Experiments were conducted under non-phosphorylating conditions in the presence of 15 μM atractyloside. Afterwards, rotenone (1.5 μM), antimycin A (2 μM), and myxothiazol (0.2 μM) were sequentially added to inhibit the redox centers within the electron transfer chain (see FIG. 2), namely sites IQ, IF (with rotenone), IIIQi (with antimycin A) and IIIQO (with myxothiazol). Assay was finally calibrated with known amounts of H2O2 (steps of 300 nM), in the presence of all relevant compounds, including AOX. The control test of the absence of effect of AOL, AOX and Oltipraz on the Amplex Red assay itself and NAD(P)H oxidase […] production was carried out in the absence of cardiac mitochondria and the presence of NAD(P)H oxidase (EC 1.6.3.3, 5 mU/mL, Sigma) and NADH (100 μM) solutions.
The mechanism of action of AOX was further tested in vitro using the peroxidase-Amplex Red system utilized for the measurement of ROS/H2O2 by mitochondria, which in fact measures the appearance of H2O2 by the oxidation of Amplex Red to the fluorescent resorufin (FIG. 22). In the absence of mitochondria and by adding instead a H2O2-producing system to the assay, it was possible to test the effect of AOX on this non-mitochondrial superoxide/H2O2 production. This has been carried out by using commercial NAD(P)H oxidase which produces H2O2 in the presence of added NAD(P)H and measuring the reduction of Amplex Red to resorufin. […]

[3] = tested on: site IQ; assay: ROS/H2O2 production, site targeted individually (96-well Amplex Red), 10 mM succinate alone; type: biochemical, rat; conditions: 0 to 80 μM; effect at concentrations as low as 2.5 μM
Method: After freshly isolating mitochondria from rat heart, then measuring protein quantity of the mitochondrial suspension, H2O2 production in response to the exogenous addition of increasing concentrations of AOL, AOX and Oltipraz was measured fluorimetrically with Amplex Red and horseradish peroxidase (HRP).
The two major sites of mitochondrial ROS/H2O2 production were targeted individually using the combination of succinate (energy substrate of respiratory complex 2) and known inhibitors of respiratory chain, namely for site IQ, 10 mM succinate alone (CCCP as positive control) and for site IIIQouter, 10 mM succinate, 4 μM rotenone and 2.5 μM antimycin A (myxothiazol as positive control). These “reaction” solutions were designed to generate maximal rates of ROS/H2O2 production predominantly from a single site within the chain (Quinlan et al. 2013. Redox Biol. 1:304-12).
For measurement, a working solution of 50 μM Amplex red reagent and 20 μg/ml HRP was mixed to the reaction buffer into the corresponding wells of a 96-well plate (Greiner 96 F-bottom), in the absence or presence of increasing concentrations (from 0 to 80 μM) of AOL, AOX or Oltipraz. Addition of mitochondria to a final concentration of 0.125 mg/mL per well initiated the assay. The appropriate total volume per microplate well was 200 μL.
Plates were incubated in the dark at room temperature for 20-25 minutes. A double orbital shaking (100 rpm-3 seconds) was applied before reading the endpoint fluorescence values on a CLARIOstar plate reader (BMG LABTECH GmbH, Germany). In fact, H2O2 reacts with Amplex Red in a 1:1 stoichiometry, yielding the fluorescent compound resorufin that was analyzed using the following optic settings (excitation wavelength at 546-20 nm; emission at 600-40 nm; gain: 750).
Also, an H2O2 standard curve, with concentrations ranging from 0 to 5 μM, was prepared in the experimental buffer that consisted in (in mM): 140 sucrose, 100 KCl, 1 EGTA, 20 MgCl2, 10 KH2PO4, and 1 g/L (w/v) BSA essentially fatty acid free (pH 7.2). […]

SMILES	metastatic activity (cells crossing the membrane) [1]	effect on ROS measurement with NAD(P)H oxidase [2]	inhibition of ROS production in site IQ [3]
CC(=O)N[C@@H](CS)C(=O)O [NAC, N-acetyl cysteine]	huge increase in metastatic activity	–	–
Cc1c(-c2cnccn2)ssc1=S [Oltipraz]	–	constantly decreased the amount of ROS measured	only a poor effect
